Data: article PMC11822212, “High-throughput screening identifies Aurora kinase B as a critical therapeutic target for Merkel cell carcinoma” (Nature Communications, 2025)
Values joined by “and” are separate entries in the source; they are usually repeats but may differ in a detail not shown here. Equal values may be shown once. Read-outs that look alike come from different tables or passages of the source.

How the values were obtained:
Assay in all cases: qHTS cell viability (CellTiter-Glo, 72 h; primary and follow-up small molecule screen)
Format in all cases: cell-based, human
[1] = test system: MCC13 cells (VN-MCC)
[2] = test system: MCC26 cells (VN-MCC)
[3] = test system: UISO cells (VN-MCC)
[4] = test system: WAGA cells (VP-MCC)
[5] = test system: MKL-1 cells (VP-MCC)
[6] = test system: MKL-2 cells (VP-MCC)
[7] = follow-up screen, MCC13, replicate 1
[8] = follow-up screen, MCC13, replicate 2
[9] = follow-up screen, MCC13, replicate 3
[10] = follow-up screen, MCC26, replicate 1
[11] = follow-up screen, MCC26, replicate 2
[12] = follow-up screen, MCC26, replicate 3
[13] = follow-up screen, UISO, replicate 1
[14] = follow-up screen, UISO, replicate 2
[15] = follow-up screen, UISO, replicate 3
[16] = follow-up screen, WAGA, replicate 1
[17] = follow-up screen, WAGA, replicate 2
[18] = follow-up screen, WAGA, replicate 3
[19] = follow-up screen, MKL-1, replicate 1
[20] = follow-up screen, MKL-1, replicate 2
[21] = follow-up screen, MKL-1, replicate 3
[22] = follow-up screen, MKL-2, replicate 1
[23] = follow-up screen, MKL-2, replicate 2
[24] = follow-up screen, MKL-2, replicate 3

Compound | Area under the dose-response curve (AUC) MCC13 Replicate 1 [1] | Area under the dose-response curve (AUC) MCC13 Replicate 2 [1] | Area under the dose-response curve (AUC) MCC13 Replicate 3 [1] | Area under the dose-response curve (AUC) MCC26 Replicate 1 [2] | Area under the dose-response curve (AUC) MCC26 Replicate 2 [2] | Area under the dose-response curve (AUC) MCC26 Replicate 3 [2] | Area under the dose-response curve (AUC) UISO Replicate 1 [3] | Area under the dose-response curve (AUC) UISO Replicate 2 [3] | Area under the dose-response curve (AUC) UISO Replicate 3 [3] | Area under the dose-response curve (AUC) WAGA Replicate 1 [4] | Area under the dose-response curve (AUC) WAGA Replicate 2 [4] | Area under the dose-response curve (AUC) WAGA Replicate 3 [4] | Area under the dose-response curve (AUC) MKL-1 Replicate 1 [5] | Area under the dose-response curve (AUC) MKL-1 Replicate 2 [5] | Area under the dose-response curve (AUC) MKL-1 Replicate 3 [5] | Area under the dose-response curve (AUC) MKL-2 Replicate 1 [6] | Area under the dose-response curve (AUC) MKL-2 Replicate 2 [6] | Area under the dose-response curve (AUC) MKL-2 Replicate 3 [6] | Area under the dose-response curve (AUC) MCC13 Replicate 1 [1, 7] | Area under the dose-response curve (AUC) MCC13 Replicate 2 [1, 8] | other results
Phenylmercuric acetate | 405.8 | 369.3 | 386.0 | 356.5 | 359.6 | 374.3 | 343.0 | 369.6 | 334.3 | 330.3 | 317.4 | 331.4 | 287.3 | 286.9 | 280.4 | 295.2 | 271.6 | 292.7 |  |  | 
CO/C1=C\C(C)=C\[C@@H](C)[C@@H](O)[C@@H](C)C/C(C)=C/C=C/[C@H](OC)[C@@H]([C@@H](C)[C@@H](O)[C@H](C)[C@@]2(O)C[C@@H](O)[C@H](C)[C@@H](C(C)C)O2)OC1=O [Bafilomycin A1] |  |  |  |  |  |  |  |  |  |  |  |  |  |  |  |  |  |  | 343.3 | 351.4 | Area under the dose-response curve (AUC) MCC13 Replicate 3 [1, 9]: 328.2; Area under the dose-response curve (AUC) MCC26 Replicate 1 [2, 10]: 325.4; Area under the dose-response curve (AUC) MCC26 Replicate 2 [2, 11]: 330.5; Area under the dose-response curve (AUC) MCC26 Replicate 3 [2, 12]: 331.3; Area under the dose-response curve (AUC) UISO Replicate 1 [3, 13]: 306.5; Area under the dose-response curve (AUC) UISO Replicate 2 [3, 14]: 264.4; Area under the dose-response curve (AUC) UISO Replicate 3 [3, 15]: 311.8; Area under the dose-response curve (AUC) WAGA Replicate 1 [4, 16]: 341.4; Area under the dose-response curve (AUC) WAGA Replicate 2 [4, 17]: 394.8; Area under the dose-response curve (AUC) WAGA Replicate 3 [4, 18]: 342.5; Area under the dose-response curve (AUC) MKL-1 Replicate 1 [5, 19]: 341.8; Area under the dose-response curve (AUC) MKL-1 Replicate 2 [5, 20]: 384.5; Area under the dose-response curve (AUC) MKL-1 Replicate 3 [5, 21]: 316.5; Area under the dose-response curve (AUC) MKL-2 Replicate 1 [6, 22]: 338.8; Area under the dose-response curve (AUC) MKL-2 Replicate 2 [6, 23]: 333.5; Area under the dose-response curve (AUC) MKL-2 Replicate 3 [6, 24]: 368.3
CCOC(=O)c1cnc2ccc(-c3cncc(NS(=O)(=O)c4ccccc4)c3)cn12 [HS-173] |  |  |  |  |  |  |  |  |  |  |  |  |  |  |  |  |  |  |  |  | Area under the dose-response curve (AUC) [1]: 410.4 and 416.6 and 423.4; Area under the dose-response curve (AUC) [2]: 371.1 and 368.1 and 383.3; Area under the dose-response curve (AUC) [3]: 373.6 and 378.4 and 376.1; Area under the dose-response curve (AUC) [4]: 390.4 and 391.0 and 384.0; Area under the dose-response curve (AUC) [5]: 400.2 and 402.4 and 398.2; Area under the dose-response curve (AUC) [6]: 425.2 and 393.3 and 372.1
COc1ccc([C@]2(C#N)CC[C@@H](C(=O)O)CC2)cc1OC1CCCC1 [Cilomilast] |  |  |  |  |  |  |  |  |  |  |  |  |  |  |  |  |  |  | 465.9 | 445.9 | Area under the dose-response curve (AUC) MCC13 Replicate 3 [1, 9]: 491.5; Area under the dose-response curve (AUC) MCC26 Replicate 1 [2, 10]: 421.1; Area under the dose-response curve (AUC) MCC26 Replicate 2 [2, 11]: 410.0; Area under the dose-response curve (AUC) MCC26 Replicate 3 [2, 12]: 436.1; Area under the dose-response curve (AUC) UISO Replicate 1 [3, 13]: 447.9; Area under the dose-response curve (AUC) UISO Replicate 2 [3, 14]: 471.9; Area under the dose-response curve (AUC) UISO Replicate 3 [3, 15]: 485.5; Area under the dose-response curve (AUC) WAGA Replicate 1 [4, 16]: 477.6; Area under the dose-response curve (AUC) WAGA Replicate 2 [4, 17]: 504.5; Area under the dose-response curve (AUC) WAGA Replicate 3 [4, 18]: 496.1; Area under the dose-response curve (AUC) MKL-1 Replicate 1 [5, 19]: 459.2; Area under the dose-response curve (AUC) MKL-1 Replicate 2 [5, 20]: 478.6; Area under the dose-response curve (AUC) MKL-1 Replicate 3 [5, 21]: 483.6; Area under the dose-response curve (AUC) MKL-2 Replicate 1 [6, 22]: 473.7; Area under the dose-response curve (AUC) MKL-2 Replicate 2 [6, 23]: 471.8; Area under the dose-response curve (AUC) MKL-2 Replicate 3 [6, 24]: 486.7
CS[C@H]1SC[C@H]2C(=O)N(C)[C@@H](C(C)C)C(=O)OC[C@@H](NC(=O)c3cnc4ccccc4n3)C(=O)N[C@@H](C)C(=O)N(C)[C@@H]1C(=O)N(C)[C@@H](C(C)C)C(=O)OC[C@@H](NC(=O)c1cnc3ccccc3n1)C(=O)N[C@@H](C)C(=O)N2C [Echinomycin] | 310.2 | 265.0 | 244.8 | 267.2 | 264.2 | 215.9 | 140.9 | 135.8 | 136.4 | 225.7 | 172.6 | 225.4 | 235.9 | 188.8 | 250.5 | 166.1 | 154.0 | 225.2 |  |  | 
C[C@H]1O[C@@H](O[C@H]2[C@@H](O)C[C@H](O[C@H]3[C@@H](O)C[C@H](O[C@H]4CC[C@@]5(C)[C@H](CC[C@@H]6[C@@H]5CC[C@]5(C)[C@@H](C7=CC(=O)OC7)CC[C@]65O)C4)O[C@@H]3C)O[C@@H]2C)C[C@H](O)[C@@H]1O [Digitoxin] | 232.3 | 249.2 | 235.6 | 279.4 | 294.5 | 239.6 | 201.4 | 226.6 | 210.4 | 276.0 | 299.5 | 286.7 | 269.2 | 287.7 | 299.6 | 287.6 | 297.9 | 317.5 |  |  | 
CN[C@@H]1[C@H](O)[C@H](NC)[C@H]2O[C@@]3(O)C(=O)C[C@@H](C)O[C@H]3O[C@@H]2[C@H]1O.Cl.Cl.O.O.O.O.O [Spectinomycin hydrochloride] |  |  |  |  |  |  |  |  |  |  |  |  |  |  |  |  |  |  | 504.6 | 484.6 | Area under the dose-response curve (AUC) MCC13 Replicate 3 [1, 9]: 486.4; Area under the dose-response curve (AUC) MCC26 Replicate 1 [2, 10]: 469.4; Area under the dose-response curve (AUC) MCC26 Replicate 2 [2, 11]: 428.8; Area under the dose-response curve (AUC) MCC26 Replicate 3 [2, 12]: 486.9; Area under the dose-response curve (AUC) UISO Replicate 1 [3, 13]: 480.2; Area under the dose-response curve (AUC) UISO Replicate 2 [3, 14]: 491.5; Area under the dose-response curve (AUC) UISO Replicate 3 [3, 15]: 485.2; Area under the dose-response curve (AUC) WAGA Replicate 1 [4, 16]: 531.5; Area under the dose-response curve (AUC) WAGA Replicate 2 [4, 17]: 530.5; Area under the dose-response curve (AUC) WAGA Replicate 3 [4, 18]: 510.1; Area under the dose-response curve (AUC) MKL-1 Replicate 1 [5, 19]: 495.1; Area under the dose-response curve (AUC) MKL-1 Replicate 2 [5, 20]: 464.4; Area under the dose-response curve (AUC) MKL-1 Replicate 3 [5, 21]: 515.8; Area under the dose-response curve (AUC) MKL-2 Replicate 1 [6, 22]: 495.5; Area under the dose-response curve (AUC) MKL-2 Replicate 2 [6, 23]: 540.4; Area under the dose-response curve (AUC) MKL-2 Replicate 3 [6, 24]: 501.9
SP-600125 | 457.8 | 483.0 | 492.5 | 435.5 | 426.6 | 458.4 | 425.2 | 449.0 | 462.0 | 479.2 | 486.5 | 468.4 | 472.9 | 491.9 | 491.6 | 447.3 | 464.7 | 498.4 |  |  | 
C[C@]12CC[C@H](O)C[C@H]1CC[C@@H]1[C@@H]2CC[C@]2(C)[C@@H](c3ccc(=O)oc3)CC[C@]12O [Bufalin] |  |  |  |  |  |  |  |  |  |  |  |  |  |  |  |  |  |  |  |  | Area under the dose-response curve (AUC) [1]: 246.2 and 243.7 and 237.7; Area under the dose-response curve (AUC) [2]: 270.7 and 302.4 and 244.7; Area under the dose-response curve (AUC) [3]: 235.9 and 234.7 and 201.8; Area under the dose-response curve (AUC) [4]: 311.5 and 289.3 and 286.6; Area under the dose-response curve (AUC) [5]: 317.9 and 310.4 and 298.2; Area under the dose-response curve (AUC) [6]: 316.9 and 287.6 and 264.0
